Results on one compound are retold here after patent publication US20220081435A1, “ANDROGEN RECEPTOR PROTEIN DEGRADERS” (THE REGENTS OF THE UNIVERSITY OF MICHIGAN, priority 2019, published 2022).

For one assay, the target named is T1, AR protein (Homo sapiens, UniProt P10275).
T1 construct: host or cells: VCaP
T1 sequence (P10275 1-920): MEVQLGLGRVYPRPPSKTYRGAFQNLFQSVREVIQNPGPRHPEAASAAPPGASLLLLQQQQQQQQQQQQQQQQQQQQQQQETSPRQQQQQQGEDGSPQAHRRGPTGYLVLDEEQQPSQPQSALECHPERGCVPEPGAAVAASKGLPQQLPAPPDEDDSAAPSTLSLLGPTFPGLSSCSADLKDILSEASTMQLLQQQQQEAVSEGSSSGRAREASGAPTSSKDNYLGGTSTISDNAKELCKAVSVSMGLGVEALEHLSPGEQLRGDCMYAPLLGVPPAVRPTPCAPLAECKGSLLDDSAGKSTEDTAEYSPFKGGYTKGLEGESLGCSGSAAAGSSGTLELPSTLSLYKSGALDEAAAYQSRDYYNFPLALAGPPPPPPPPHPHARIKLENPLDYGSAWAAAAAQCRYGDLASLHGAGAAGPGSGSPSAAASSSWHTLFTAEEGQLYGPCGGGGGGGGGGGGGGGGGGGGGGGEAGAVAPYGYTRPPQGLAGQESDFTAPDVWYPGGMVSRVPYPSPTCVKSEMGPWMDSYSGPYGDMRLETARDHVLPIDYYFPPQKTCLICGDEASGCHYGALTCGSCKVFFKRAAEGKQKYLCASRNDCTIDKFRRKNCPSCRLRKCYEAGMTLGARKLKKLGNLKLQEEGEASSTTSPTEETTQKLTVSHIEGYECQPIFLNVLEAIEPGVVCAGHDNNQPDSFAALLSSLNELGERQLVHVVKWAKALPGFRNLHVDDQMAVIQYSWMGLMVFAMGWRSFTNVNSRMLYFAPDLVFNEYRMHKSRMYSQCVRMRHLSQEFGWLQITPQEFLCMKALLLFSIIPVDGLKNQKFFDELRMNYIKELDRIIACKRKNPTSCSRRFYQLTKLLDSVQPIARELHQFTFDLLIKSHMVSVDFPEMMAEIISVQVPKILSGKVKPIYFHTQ
Nature of the assay: AR protein degradation in VCaP cells (Western blotting). It counts as cell-based. On the procedure:
Cell lines and Cell Culture: All the LNCaP, VCaP and 22RV1 cells used were purchased from American Type Culture Collection (ATCC). LNCaP and 22RV1 cells were grown in RPMI 1640 (Invitrogen), VCaP cells were grown in DMEM with Glutamax (Invitrogen). All of the cells were supplemented with 10% fetal bovine serum (Invitrogen) at 37° C. in a humidified 5% CO2 incubator.
Western Blotting. Treated cells were lysed by RIPA buffer supplemented with protease and phosphatase inhibitors. The cell lysates were separated by 4-12% SDS-PAGE gels and blotted into PVDF membranes. Software ImageJ was used to quantify the percentage of AR degradation. The net protein bands and loading controls are calculated by deducting the background from the inverted band value. The final relative quantification values are the ratio of net band to net loading control.

The test system of assay [1] is AR-regulated gene expression (PSA, TMPRSS2, FKBP5). The assay can be described thus: Suppression of AR-regulated gene expression in LNCaP cells (qRT-PCR). Type of assay: cell-based. On the procedure: Quantitative Real-Time Polymerase Chain Reaction (qRT-PCR). Real-time PCR was performed using QuantStudio 7 Flex Real-Time PCR System as described previously.^43,44 RNA was purified using the Qiagen RNase-Free DNase set, then after quantification, the extracted RNA was converted to cDNA using High Capacity RNA-to-cDNA Kit from Applied Biosystems (Thermo Fisher Scientific). The levels of AR, TMPRSS2, FKBP5, PSA(KLK3) and GAPDH were quantified using TaqMan Fast Advanced Master Mix from Applied Biosystems. The level of gene expression was evaluated using comparative CT method, which compares the CT value to GAPDH (ACT) and then to vehicle control (ΔΔCT).
In general terms: In qPCR the cycle at which signal appears reflects the starting amount.

At AR protein (10 nM, 24 h treatment), `Cc1ncsc1-c1ccc([C@H](CC(=O)N2CCC(N3CCC(C#Cc4ccc(C(=O)NC5C(C)(C)C(Oc6ccc(C#N)c(Cl)c6)C5(C)C)cc4)CC3)CC2)NC(=O)[C@@H]2C[C@@H](O)CN2C(=O)[C@@H](NC(=O)C2(F)CC2)C(C)(C)C)cc1` (stereo partly drawn) [Compound 34, (2S,4R)—N—((S)-3-(4-((4-(((1r,3r)-3-(3-Chloro-4-cyanophenoxy)-2,2,4,4-tetramethyl-cyclobutyl)carbamoyl)phenyl)ethynyl)-[1,4′-bipiperidin]-1′-yl)-1-(4-(4-methylthiazol-5-yl)phenyl)-3-oxopropyl)-1-((S)-2-(1-fluorocyclopropane-1-carboxamido)-3,3-dimethylbutanoyl)-4-hydroxypyrrolidine-2-carboxamide] displayed an AR degradation of more than 95%. For the same compound, on AR protein (100 nM), the “Time to effective reduction of AR protein level” value is listed as not above 2 h. In addition, on AR protein (100 nM, 4 h), the “AR depletion with a 4 h treatment” value is recorded as “near-complete AR depletion”. Besides, on AR protein (24 h treatment, read-out: DC50 (drug concentration that results in 50% protein degradation)), the DC50 was 0.76 nM. The “AR degradation after pretreatment with AR antagonist (6), VHL-d, MLN4924 or MG132” value at AR protein (data not shown) is “effectively blocked”. Besides, the “Potency relative to AR antagonist 6 in suppressing AR-regulated gene transcription” value in assay [1] is more than 100 times. Further, the “Reduction of mRNA level of both PSA and TMPRSS2 genes” value in assay [1] (10 nM) is given as more than 50%. The “Expression of PSA, TMPRSS2 and FKBP5 genes” value in assay [1] (dose-dependent, data not shown) was “effectively suppressed”.
